Experimental findings from patent publication US8143294B2, “2-sulfanyl-substituted imidazole derivatives and their use as cytokine inhibitors” (priority 2007, dated 2012) are described below.

As usually defined, the IC50 is the concentration that gives 50% inhibition.

p38α, sequence (Q16539 whole entry): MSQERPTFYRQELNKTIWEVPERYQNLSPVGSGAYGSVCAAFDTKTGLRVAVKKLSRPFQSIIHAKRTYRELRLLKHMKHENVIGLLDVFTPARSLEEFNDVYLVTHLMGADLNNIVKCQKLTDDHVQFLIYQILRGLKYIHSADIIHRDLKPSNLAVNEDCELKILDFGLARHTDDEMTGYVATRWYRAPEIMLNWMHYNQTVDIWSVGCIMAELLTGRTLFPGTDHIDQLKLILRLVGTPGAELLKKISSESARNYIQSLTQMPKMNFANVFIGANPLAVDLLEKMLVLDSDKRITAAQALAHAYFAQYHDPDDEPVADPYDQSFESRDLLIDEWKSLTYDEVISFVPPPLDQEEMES

This assay concerns the target p38α (Homo sapiens, UniProt Q16539). Briefly: P38α enzyme inhibition assay (ATF-2 phosphorylation ELISA). The assay is classed as biochemical. The note with it: activated p38α, substrate ATF-2, ATP 100 μM, 60 minutes incubation, photometric readout 405 nm; read-out: Kinase assay IC50. How it is done: P38α Enzyme Inhibition Assay:
First the microtiter plates are coated using a dilution of ATF-2, substrate of p38α. Each step is followed by a threefold washing step. As the substrate doesn't cover the whole surface, blocking buffer is used to capture the free binding sites. In the meantime, the test compounds are diluted using the kinase buffer, which contains ATP [100 μM], phosphatase-inhibitors and the activated p38α.
The different dilutions of the test compounds are pipetted on the plate. ATP and the compounds compete for the enzyme's binding site. During an incubation time of 60 minutes ATF-2 is dual phosphorylated at Thr 69/71 by p38α kinase depending on its degree of inhibition. Next the first antibody is added into the wells. This antibody binds specifically at dual phosphorylated ATF-2 (Thr 69/71). Secondary antibody, that is conjugated with alkaline phosphatase, binds at the first one. Finally 4-NPP is given in the wells and after an incubation under cover of darkness it is photometrically analysed (405 nm).
For the compound `COC(=O)CSc1nc(-c2ccc(F)cc2)c(-c2ccnc(NC(C)c3ccccc3)c2)[nH]1` (stereo not drawn) [Example 8p, methyl 2-(4-(4-fluorophenyl)-5-(2-(1-phenylethylamino)pyridin-4-yl)-1H-imidazol-2-ylthio)acetate], the half-inhibitory concentration (IC50) is 35 nM. For `CCC(C)Nc1cc(-c2[nH]c(SCC(O)CO)nc2-c2ccc(F)cc2)ccn1` (stereo not drawn) [Example 8g, 3-(4-(4-Fluorophenyl)-5-(2-(sec-butylamino)pyridin-4-yl)-1H-imidazol-2-ylthio)propane-1,2-diol] the value was 5.1 nM; for `CC(C)Nc1cc(-c2[nH]c(SC[C@H](O)CO)nc2-c2ccc(F)cc2)ccn1` [Example 8n, (2R)-3-(4-(4-Fluorophenyl)-5-(2-(isopropylamino)pyridin-4-yl)-1H-imidazol-2-ylthio)propane-1,2-diol], 5.5 nM. Take `OCCSc1nc(-c2ccc(F)cc2)c(-c2ccnc(NC3CCOCC3)c2)[nH]1` [Example 8v, 2-(4-(4-Fluorophenyl)-5-(2-(tetrahydro-2H-pyran-4-ylamino)pyridin-4-yl)-1H-imidazol-2-ylthio)ethanol]: the IC50 amounted to 2.3 nM. For `CC(Nc1cc(-c2[nH]c(SCC(=O)O)nc2-c2ccc(F)cc2)ccn1)c1ccccc1` (stereo not drawn) [Example 8q, 2-(4-(4-fluorophenyl)-5-(2-(1-phenylethylamino)pyridin-4-yl)-1H-imidazol-2-ylthio)acetic acid] the value was 36 nM. For `COC(=O)CSc1nc(-c2ccc(F)cc2)c(-c2ccnc(NC(C)C)c2)[nH]1` [Example 8t, Methyl 2-(4-(4-fluorophenyl)-5-(2-(isopropylamino)pyridin-4-yl)-1H-imidazol-2-ylthio)acetate] the value was 3.6 nM. For `COC(=O)CSc1nc(-c2ccc(F)cc2)c(-c2ccnc(NC(C)C(C)C)c2)[nH]1` (stereo not drawn) [Example 8s, Methyl 2-(4-(4-fluorophenyl)-5-(2-(3-methylbutan-2-ylamino)pyridin-4-yl)-1H-imidazol-2-ylthio)acetate] the value was 20 nM; for `CC(C)C(C)Nc1cc(-c2[nH]c(SC[C@@H](O)CO)nc2-c2ccc(F)cc2)ccn1` (stereo partly drawn) [Example 8m, (2S)-3-(4-(4-Fluorophenyl)-5-(2-(3-methylbutan-2-ylamino)pyridin-4-yl)-1H-imidazol-2-ylthio)propane-1,2-diol], 9.5 nM. Turning to `CC(C)C(C)Nc1cc(-c2[nH]c(SCC(O)CO)nc2-c2ccc(F)cc2)ccn1` (stereo not drawn) [Example 8f, 3-(4-(4-Fluorophenyl)-5-(2-(3-methylbutan-2-ylamino)pyridin-4-yl)-1H-imidazol-2-ylthio)propane-1,2-diol], the 50% inhibitory concentration (IC50) was 14 nM.

In the case of `CCOP(=O)(CSc1nc(-c2ccc(F)cc2)c(-c2ccnc(NC(C)c3ccccc3)c2)[nH]1)OCC` (stereo not drawn) [Example 8r, Diethyl (4-(4-fluorophenyl)-5-(2-(1-phenylethylamino)pyridin-4-yl)-1H-imidazol-2-ylthio)methylphosphonate], the concentration for half-maximal inhibition (IC50) turned out to be 400 nM. For `CC(C)CNc1cc(-c2[nH]c(SCC(O)CO)nc2-c2ccc(F)cc2)ccn1` (stereo not drawn) [Example 8c, 3-(4-(4-Fluorophenyl)-5-(2-(isobutylamino)pyridin-4-yl)-1H-imidazol-2-ylthio)propane-1,2-diol] the value was 13 nM; for `CC(C)Nc1cc(-c2[nH]c(SCCO)nc2-c2ccc(F)cc2)ccn1` [Example 8u, 2-(4-(4-Fluorophenyl)-5-(2-(isopropylamino)pyridin-4-yl)-1H-imidazol-2-ylthio)ethanol], 3 nM. For `OCC(O)CSc1nc(-c2ccc(F)cc2)c(-c2ccnc(NC3CCOCC3)c2)[nH]1` (stereo not drawn) [Example 8i, 3-(4-(4-Fluorophenyl)-5-(2-(tetrahydro-2H-pyran-4-ylamino)pyridin-4-yl)-1H-imidazol-2-ylthio)propane-1,2-diol] the value was 3.3 nM; for `OCC(O)CSc1nc(-c2ccc(F)cc2)c(-c2ccnc(NCc3ccccc3)c2)[nH]1` (stereo not drawn) [Example 8b, 3-(5-(2-(1-Benzylamino)pyridin-4-yl)-4-(4-fluorophenyl)-1H-imidazol-2-ylthio)propane-1,2-diol], 87 nM; for `CC(C)Nc1cc(-c2[nH]c(SC[C@@H](O)CO)nc2-c2ccc(F)cc2)ccn1` [Example 8o, (2S)-3-(4-(4-Fluorophenyl)-5-(2-(isopropylamino)pyridin-4-yl)-1H-imidazol-2-ylthio)propane-1,2-diol], 3.2 nM. For `CNc1cc(-c2[nH]c(SCC(O)CO)nc2-c2ccc(F)cc2)ccn1` (stereo not drawn) [Example 8e, 3-(4-(4-Fluorophenyl)-5-(2-(methylamino)pyridin-4-yl)-1H-imidazol-2-ylthio)propane-1,2-diol] the value was 100 nM. Consider `CC(Nc1cc(-c2[nH]c(SCCO)nc2-c2ccc(F)cc2)ccn1)c1ccccc1` (stereo not drawn) [Example 8x, 2-(4-(4-Fluorophenyl)-5-(2-(1-phenylethylamino)pyridin-4-yl)-1H-imidazol-2-ylthio)ethanol], for which the IC50 was 14 nM. For `CC(C)C(C)Nc1cc(-c2[nH]c(SCCO)nc2-c2ccc(F)cc2)ccn1` (stereo not drawn) [Example 8k, 2-(4-(4-Fluorophenyl)-5-(2-(3-methylbutan-2-ylamino)pyridin-4-yl)-1H-imidazol-2-ylthio)ethanol] the value was 10 nM. For `CC(C)Nc1cc(-c2[nH]c(SCC(O)CO)nc2-c2ccc(F)cc2)ccn1` (stereo not drawn) [Example 8h, 3-(4-(4-Fluorophenyl)-5-(2-(isopropylamino)pyridin-4-yl)-1H-imidazol-2-ylthio)propane-1,2-diol] the value was 3.6 nM. For `CC(Nc1cc(-c2[nH]c(SCC(O)CO)nc2-c2ccc(F)cc2)ccn1)c1ccccc1` (stereo not drawn) [Example 8a, 3-(4-(4-Fluorophenyl)-5-(2-(1-phenylethylamino)pyridin-4-yl)-1H-imidazol-2-ylthio)propane-1,2-diol] the value was 42 nM; for `CCNc1cc(-c2[nH]c(SCC(O)CO)nc2-c2ccc(F)cc2)ccn1` (stereo not drawn) [Example 8d, 3-(5-(2-(Ethylamino)pyridin-4-yl)-4-(4-fluorophenyl)-1H-imidazol-2-ylthio)propane-1,2-diol], 26 nM. On to `CC(C)C(C)Nc1cc(-c2[nH]c(SC[C@H](O)CO)nc2-c2ccc(F)cc2)ccn1` (stereo partly drawn) [Example 8l, (2R)-3-(4-(4-Fluorophenyl)-5-(2-(3-methylbutan-2-ylamino)pyridin-4-yl)-1H-imidazol-2-ylthio)propane-1,2-diol], for which the IC50 is 17 nM. For `OCC(O)CSc1nc(-c2ccc(F)cc2)c(-c2ccncc2)[nH]1` (stereo not drawn) [reference compound] the value was 3600 nM. Consider `OCCSc1nc(-c2ccc(F)cc2)c(-c2ccnc(N[C@H]3CC[C@H](O)CC3)c2)[nH]1` [Example 8w, (1R,4R)-4-(4-(4-(4-Fluorophenyl)-2-(2-hydroxyethylthio)-1H-imidazol-5-yl)pyridin-2-ylamino)cyclohexanol], for which the half-maximal inhibitory concentration (IC50) amounted to 2 nM.
